Columns and labels:
[1] = physchem
[2] = molecular target: T1, 5-lipoxygenase (LO) (Bos taurus, UniProt F1MQ78); assay: Inhibition of the enzyme 5-lipoxygenase (LO); type: biochemical; conditions: first figure of cell 'LO/CO'; decimal comma; concentration unit inferred; read-out: 7) IC50 LO
T1 construct: endogenous in cells
T1 sequence (F1MQ78 1-674): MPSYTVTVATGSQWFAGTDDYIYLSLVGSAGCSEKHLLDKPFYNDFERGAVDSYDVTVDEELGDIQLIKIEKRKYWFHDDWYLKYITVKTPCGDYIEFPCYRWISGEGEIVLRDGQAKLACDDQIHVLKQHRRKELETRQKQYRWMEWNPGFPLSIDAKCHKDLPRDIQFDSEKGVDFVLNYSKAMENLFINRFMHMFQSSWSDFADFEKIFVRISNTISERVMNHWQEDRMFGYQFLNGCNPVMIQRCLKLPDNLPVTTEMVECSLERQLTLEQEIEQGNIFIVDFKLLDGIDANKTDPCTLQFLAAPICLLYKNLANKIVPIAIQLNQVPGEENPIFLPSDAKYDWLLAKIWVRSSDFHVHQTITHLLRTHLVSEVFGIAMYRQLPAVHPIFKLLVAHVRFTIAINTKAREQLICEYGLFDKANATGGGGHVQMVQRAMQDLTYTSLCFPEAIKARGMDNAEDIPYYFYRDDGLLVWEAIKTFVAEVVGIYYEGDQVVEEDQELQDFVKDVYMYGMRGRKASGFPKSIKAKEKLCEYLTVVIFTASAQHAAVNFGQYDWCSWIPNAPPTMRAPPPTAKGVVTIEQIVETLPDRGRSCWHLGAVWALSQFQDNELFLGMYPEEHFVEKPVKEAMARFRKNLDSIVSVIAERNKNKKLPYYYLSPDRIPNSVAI
Description: (§1) 7) IC50 /LO/CO: Inhibition of the enzyme cyclooxygenase (CO) and 5-lipoxygenase (LO), Dannhardt et al., J. Pharm. Pharmacol. 1992, 44:419-424.

[3] = molecular target: T2, cyclooxygenase (CO) (Bos taurus, UniProt O62664); assay: Inhibition of the enzyme cyclooxygenase (CO); type: biochemical; conditions: second figure of cell 'LO/CO'; decimal comma; concentration unit inferred; read-out: 7) IC50 CO
T2 construct: endogenous in cells
T2 sequence (O62664 25-600): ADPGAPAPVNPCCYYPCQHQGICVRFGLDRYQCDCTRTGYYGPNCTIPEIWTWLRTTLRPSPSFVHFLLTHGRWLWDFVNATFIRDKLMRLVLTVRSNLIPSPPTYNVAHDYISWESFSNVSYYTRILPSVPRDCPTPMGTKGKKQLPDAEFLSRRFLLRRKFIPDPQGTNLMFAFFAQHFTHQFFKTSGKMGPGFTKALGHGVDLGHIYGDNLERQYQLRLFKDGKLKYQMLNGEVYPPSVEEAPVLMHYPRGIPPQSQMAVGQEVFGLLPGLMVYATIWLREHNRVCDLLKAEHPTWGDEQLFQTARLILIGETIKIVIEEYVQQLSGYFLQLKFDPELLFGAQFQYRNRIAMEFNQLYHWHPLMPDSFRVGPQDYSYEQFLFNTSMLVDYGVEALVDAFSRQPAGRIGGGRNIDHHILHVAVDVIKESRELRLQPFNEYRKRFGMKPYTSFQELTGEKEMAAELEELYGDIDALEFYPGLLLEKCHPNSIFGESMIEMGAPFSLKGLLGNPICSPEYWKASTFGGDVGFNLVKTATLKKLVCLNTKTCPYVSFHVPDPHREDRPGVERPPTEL
Description: as §1

degraded at 24 h ([1]; aqueous solution) [%]	half-life ([1]; chloroform) [h]	IC50 [2] [nM]	IC50 [3] [nM]	Structure (SMILES)
~2	~1			CC1(C)Cc2c(-c3ccccc3)c(-c3ccc(Cl)cc3)c(CC(=O)O)n2C1 [6-(4-chlorophenyl)-2,2-dimethyl-7-phenyl-2,3-dihydro-1H-pyrrolizin-5-yl acetic acid]
		230	150	CC1(C)Cc2c(-c3ccccc3)c(-c3ccc(Cl)cc3)c(CC(=O)NS(C)(=O)=O)n2C1 [Example 4]
